Measured values published in US10766940B2, “Brain penetrant amylin receptor based peptides for Alzheimer's disease” (The Governors of the University of Alberta, priority 2016, dated 2020).
Residues, ends and D or L forms follow the SMILES beside them.

Assays:
[1] = tested on: heterozygous CTR knockdown mice (50% depletion of amylin receptors); assay: R5 brain uptake in heterozygous CTR knockdown mice; format: in vivo, mouse; settings: Wt vs CTR knockdown mice, ip, 2 hr
Protocol: Mice were injected with a single dose and then sacrificed, and the brains were extracted after 2 hours from injection. Fluorescence in brains was quantified as previously described.

AMY3 receptor = molecular target: T1, AMY3 receptor (Homo sapiens, UniProt O60896+P30988); assay: Inhibition of hAmylin-evoked cAMP in AMY3-expressing HEK293 cells; format: cell-based; settings: AMY3-HEK cells
T1 construct: expressed in transfected cells; AMY3-293 / AMY3-HEK)
T1 sequence (P30988 25-474): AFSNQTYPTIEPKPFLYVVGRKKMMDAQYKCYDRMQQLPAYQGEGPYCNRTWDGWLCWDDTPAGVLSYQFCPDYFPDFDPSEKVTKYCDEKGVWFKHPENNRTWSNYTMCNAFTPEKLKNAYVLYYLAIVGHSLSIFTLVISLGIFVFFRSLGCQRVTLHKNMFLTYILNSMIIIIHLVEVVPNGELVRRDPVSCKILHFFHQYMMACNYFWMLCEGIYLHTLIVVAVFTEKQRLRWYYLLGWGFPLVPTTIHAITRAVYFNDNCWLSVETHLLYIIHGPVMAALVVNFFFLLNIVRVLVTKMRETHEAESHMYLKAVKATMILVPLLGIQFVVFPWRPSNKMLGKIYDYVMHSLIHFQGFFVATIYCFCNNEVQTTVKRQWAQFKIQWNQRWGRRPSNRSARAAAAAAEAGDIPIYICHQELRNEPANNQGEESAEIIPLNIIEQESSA
T1 sequence (O60896 24-148 partner): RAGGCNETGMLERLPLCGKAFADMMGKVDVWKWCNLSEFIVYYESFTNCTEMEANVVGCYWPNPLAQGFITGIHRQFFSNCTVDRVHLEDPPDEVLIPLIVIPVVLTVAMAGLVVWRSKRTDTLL
Protocol: a) To investigate peptides amylin receptor affinity, GFP-positive HEK293 cells that stably expressed AMY3 receptor (AMY3-293) as previously reported (Fu et al., 2012) were used. For control, GFP-positive HEK293 wild type cells were used. HEK293 cells were cultured in DMEM (Invitrogen) with 10% FBS (Invitrogen) and grown at 37° C., 5% C02. For cAMP measurements, AMY3-293 cells were plated on 24-well plates overnight. Cells were stimulated for 30 minutes with hAmylin over a concentration range (1 pM-10 μM). Cellular cAMP levels were measured using a parameter cyclic AMP assay kit (R&D Systems) according to the manufacturer's instructions. For in-cell Western blot cAMP quantification, mouse monoclonal anti-cAMP (R&D Systems) was used as a primary antibody, and IRDye 800 goat anti mouse antibody (LI-COR) was used as a secondary antibody. Plates were imaged using an Odyssey Infrared Imaging System (LI-COR), and the integrated intensity was normalized to the total cell number on the same well. Data was plotted, and non-linear regression was fitted with four parameters using Prism software (GraphPad Software, La Jolla, Calif.).
e) For cAMP measurements, AMY3-293 cells were plated on 24-well plates overnight. […] Cellular cAMP levels were measured using a parameter cyclic AMP assay kit (R&D Systems) according to the manufacturer's instructions. […]

TgCRND8 AD mouse model = assay: Morris Water Maze, chronic icv infusion of AC253; format: in vivo
Protocol: Age-matched, wild-type littermate (C57BL/6 background) male or female mice were used. […] Heterozygous CTR (het CTR) mice (C57BL/6J background) with a 50% deletion of CTR were obtained from Drs. R. A. Davey and J. D. Zajac (Department of Medicine, Austin Health, University of Melbourne, Heidelberg, Victoria, Australia). Mice were housed individually under standard laboratory conditions (12/12-h light/dark cycle, lights on at 0600 h) with a room temperature of 21° C. Water and food were available ad libitum unless otherwise indicated. All tests were performed during the light phase between 0900 and 1600 h in accordance with institutional guidelines. The mice were 3 months old at the onset of testing.
A microcannula was stereotaxically inserted into the right cerebral ventricle (0.12 right lateral and 0.06 posterior to bregma, 3 mm deep) of isofluorane-anesthetized mice, and connected to an osmotic pump (Alzet; model 2004) implanted subcutaneously on the back of the mouse. The pump infused a solution of either aCSF or AC253 in aCSF into the ventricle at a rate of […] to yield an estimated concentration of 1 μM AC253 in the mouse CSF at equilibrium based upon the known CSF dynamics in the mouse brain (Di Pardo et al., 2012). The pump reservoir was replaced every 28 days for a total of 5-6 months. Animals were monitored on a daily basis for signs of treatment-related toxicity, such as poor grooming, lethargy, loss of bodyweight, and abnormal behavior. […]
The MWM apparatus consisted of a 2 m circular blue plastic pool filled with water (24-25° C.), which was rendered opaque by the addition of non-toxic white paint. […] The behavior of a mouse was recorded by a video camera connected to a video tracking system (HVS Image 2100, HVS Image, Buckingham, UK).
The pool was surrounded by a white curtain, and a mouse was released facing the wall at points (N, E, S, W) which were chosen semi-randomly. […] Memory was evaluated in probe trial, administered on day 8 as the first trial of the day. […] Memory for the platform location was expressed as the percent of time spent in TQ.

CC(C)C[C@H](NC(=O)[C@H](CCC(=O)O)NC(=O)[C@H](CCC(N)=O)NC(=O)[C@@H](N)CO)C(=O)N[C@@H](Cc1c[nH]cn1)C(=O)N[C@@H](CCCNC(=N)N)C(=O)N[C@@H](CC(C)C)C(=O)N[C@@H](CCC(N)=O)C(=O)N[C@H](C(=O)N[C@@H](Cc1ccc(O)cc1)C(=O)N1CCC[C@H]1C(=O)N[C@@H](CCCNC(=N)N)C(N)=O)[C@@H](C)O [R5] (H-SQELHRLQTYPR-NH2; N-terminus assumed)
brain uptake in relation to amylin receptor expression [1]: proportional to the degree of amylin receptor expression

CC(C)C[C@H](NC(=O)[C@H](CCCNC(=N)N)NC(=O)CNC(=O)[C@@H](N)CC(C)C)C(=O)N[C@@H](CO)C(=O)N[C@@H](CCC(N)=O)C(=O)N[C@@H](CCC(=O)O)C(=O)N[C@@H](CC(C)C)C(=O)N[C@@H](Cc1c[nH]cn1)C(=O)N[C@@H](CCCNC(=N)N)C(=O)N[C@@H](CC(C)C)C(=O)N[C@@H](CCC(N)=O)C(=O)N[C@H](C(=O)N[C@@H](Cc1ccc(O)cc1)C(=O)N1CCC[C@H]1C(=O)N[C@@H](CCCNC(=N)N)C(=O)N[C@H](C(=O)N[C@@H](CC(N)=O)C(=O)N[C@H](C(=O)NCC(=O)N[C@@H](CO)C(=O)N[C@@H](CC(N)=O)C(=O)N[C@H](C(=O)N[C@@H](Cc1ccc(O)cc1)C(N)=O)[C@@H](C)O)[C@@H](C)O)[C@@H](C)O)[C@@H](C)O [AC253]
block of hAmylin evoked cAMP increase (AMY3 receptor): blocked the hAmylin evoked cAMP increase in a dose-dependent manner
latencies to locate the hidden platform (MWM) (TgCRND8 AD mouse model; TgCRND8 mice at 8 months of age, after 5 months of icv treatment, vs littermates receiving CSF): marked improvement in latencies to locate the hidden platform
memory in probe trials for location of the target quadrant (TgCRND8 AD mouse model; TgCRND8 mice, 8 months of age): enhanced and persistent memory in probe trials
memory deficits in MWM, Wt controls (TgCRND8 AD mouse model; wild-type littermate controls, icv AC253 or CSF, 8 months of age): no memory deficits
